Results published in article PMC10049354, “Anti-Inflammatory Effects and Photo- and Neuro-Protective Properties of BIO203, a New Amide Conjugate of Norbixin, in Development for the Treatment of Age-Related Macular Degeneration (AMD)” (International Journal of Molecular Sciences, 2023).
Values belong to the compound of their own block, whether it stands above or below them.

Legend:
[1] = Powder stability at RT, 4 °C and −20 °C for up to 18 months (LC-MS/MS); format: physicochemical; details: for loss of the compound: 4 °C
Method: The potential breakdown of BIO203 compared to BIO201 was assessed every three months in samples stored for up to 18 months at room temperature, 4 °C, and −20 °C. On the day of analysis, weighted samples of BIO203 and norbixin powder were solubilized in DMSO at 10 mg/mL final concentration. DMSO solutions were further diluted 400-fold before performing LC-MS/MS analysis which was performed on an LC 1260 System coupled with Mass Spectrometer QQQ-6420 with DAD (Supplier Agilent Technologies). BIO201 and BIO203 were eluted from a reverse-phase column (2.1 mm × 50 mm; 5 μm particles; Fortis C18) with the following gradient of acetonitrile in water (both containing 0.1% formic acid): 10 to 100% in 10 min), (flow-rate: 0.3 mL/min), (UV detection A: 460 nm, B: 254 nm, DAD: 210–500 nm), (MS scan+: 50 to 800 Frag 120 CAV 5, MS scan-: 50 to 800 Frag 120 CAV 5). The AUC value was used to determine the stability of each compound.

[2] = Acute ocular PK in rats following a single IP administration; format: in vivo, rat; details: for intraocular AUC / intraocular Cmax / time of intraocular Cmax post-administration: norbixin 10 mg/kg, BIO203 8.8 mg/kg
Method: The compounds were administered to 8–9 months-old Male Sprague-Dawley rats (n = 3 per group and per collection time) by the intraperitoneal route in vehicle (DMSO/NaCl/NaOH for BIO203 and PBS/Tween 80 (95/5) for norbixin) with an administration volume of 10 mL/kg. The solutions of BIO203 and norbixin were centrifuged, and the clear supernatants were administered to rats. The final injected concentrations were 10 mg/kg and 8.8 mg/kg for norbixin and BIO203, respectively. Doses administered differ because BIO201 and BIO203 solubility are not equivalent in their respective vehicles, and the dose of BIO203 was reduced to avoid toxicity of DMSO present in the vehicle, but the same volumes were injected into animals. Eyes were collected post-administration according to the following timing: 0, 0.08 h, 0.25 h, 0.5 h, 1 h, 1.5 h, 2 h, 4 h, 8 h, and 24 h. After euthanasia, the two eyes of each rat were collected in a Precellys tube, frozen, and stored at −80 °C.
(§1) Analysis was performed on an LC 1260 System coupled with Mass Spectrometer QQQ-6420 with DAD (Agilent Technologies). Norbixin and BIO203 were eluted from a reverse-phase column (2.1 × 50 mm; 3 μm particles; Ace Excel C18) with the following gradient of acetonitrile in water (both containing 0.1% formic acid): 55 to 100% in 5 min), (flowrate: 0.3 mL/min). […] were monitored by a mass spectrometer, in positive MRM mode, with the following transitions, respectively, 381.1 -> 144.9 and 478.1 -> 362.9. For quantification of BIO201 and BIO203, calibration curves were prepared under the same conditions as the sample matrix, with various amounts of BIO201 or BIO203 (25 to 10,000 ng/mL in plasma and 5 to 500 ng/mL for eyes).
For determination of concentrations of BIO201 or BIO203 in ocular tissues, each eye was homogenized in CHCl3/MeOH (1:1, v/v) (0.5 mL) with a homogenizer (Precellys-24) during 2 cycles (30 s) at 6500 rpm. The internal standard (retinoic acid at 10 µg/mL) was added, and the organic layer was extracted. The homogenate was then extracted two times with CHCl3/CH2Cl2 (0.5 mL). The combined organic extracts were dried in vacuo without heating (EZ2, Genevac Ltd., Ipswich, UK). Then they were dissolved in 100 μL DMSO/MeOH (1:1, v/v) and transferred to microtiter plates for LC-MS/MS analysis.

[3] = Ocular PK in rats following four repeated IP administrations; format: in vivo; details: rat eye; for ocular exposure: BIO201 10 mg/kg, BIO203 2.5 mg/kg
Method: The compounds were administered to 8–9 months old Male Sprague-Dawley rats (n = 3 per group and per collection time) by four successive intraperitoneal administrations in vehicle (DMSO/NaCl/NaOH for BIO203 and PBS/Tween 80 (95/5) for BIO201). The solutions of BIO203 and BIO201 were centrifuged, and the clear supernatants were administered to rats. Administered volume was 10 mL/kg, and the final injected concentrations were 10 mg/kg and 2.5 mg/kg for BIO201 and BIO203, respectively. Again, doses administered differ because BIO201 and BIO203 solubility are not equivalent in their respective vehicles. The dose of BIO203 was reduced to avoid toxicity of DMSO present in the vehicle, but the same volumes were injected into animals. The eyes were collected 1 h after administrations n°1 to 4 according to the following timing: 1 h, 3.5 h, 5.5 h, and 7.5 h. After euthanasia, the two eyes of each rat were collected in a Precellys tube, frozen, and stored at −80 °C.
as §1
For determination of concentrations of BIO201 or BIO203 in ocular tissues, each eye was homogenized in CHCl3/MeOH (1:1, v/v) (0.5 mL) with a homogenizer (Precellys-24) during 2 cycles (30 s) at 6500 rpm. The internal standard (retinoic acid at 10 µg/mL) was added, and the organic layer was extracted. The homogenate was then extracted two times with CHCl3/CH2Cl2 (0.5 mL). […]

[4] = system: albino rats exposed to blue-light-induced photoreceptor degeneration; assay: Blue-light damage (BLD) study in albino rats: retinal histology (photoreceptor layers); format: in vivo, rat; details: for preservation of retinal structure (photoreceptor layers): four IP administrations, 6 h blue-light exposure
Method: At the end of the measurement period on Day 7, rats were euthanized by an intraperitoneal injection of pentobarbital. Immediately after euthanasia, both eyeballs were sampled, fixed in Davidson’s solution, and processed for histology. Sections (5 to 7 µm thick) were performed along the vertical meridian and stained with Haematoxylin/Eosin stain. The vertical meridian included the optic nerve. […] The thickness of the outer nuclear layer was measured on each point. […] Histology and photoreceptor counting in mice were performed as previously described.
Sixty-four animals were selected based on good health and on scotopic electroretinogram performed before induction when the A-wave amplitude of both eyes was in the range of the global mean (all animals) of A-wave amplitude ± 1.96 SD. Animals were then randomized into the study groups using a macro function in Excel® software based on the A-wave amplitude of both eyes (mean value). On Day 0, BIO203, negative controls, and comparator (N-tert-Butyl-a-phenylnitrone (PBN)) were intraperitoneally injected using a 25 G needle in rats that have been dark-adapted for 36 h. Individually housed rats were then exposed for 6 h (±5 min) to a continuous blue, fluorescent light (400–540 nm) in clear plastic cages. After exposure and administration, the rats were placed in a dark room for 24 h (±1 h) and then were returned to rearing cyclic light conditions.

Structure (SMILES): COC1CCCN(C(=O)/C=C/C(C)=C/C=C/C(C)=C/C=C/C=C(C)/C=C/C=C(C)\C=C\C(=O)O)C1 (stereo not drawn) [BIO203]
stability ([1]; RT, +4 °C and −20 °C, 18 months): stable at all temperatures tested for at least 18 months
ocular AUC increase compared to BIO201 ([2]; discussion summary): > 200 fold
ocular Cmax increase compared to BIO201 ([2]; discussion summary): more than 10 fold
concentration at 24 h ([2]; male, Sprague-Dawley, 8.8 mg/kg, rat eye, single IP, 24 h, read-out: remaining intraocular concentration at 24 h): ~2 ng/mL
intraocular AUC of BIO203 relative to norbixin ([2]; rat eye, single IP): approximately 280 times
intraocular AUC ([2]; rat eye, single IP): 704.1 ng·h/eye
intraocular Cmax ([2]; rat eye, single IP): 133.1 ng/eye
time of intraocular Cmax post-administration ([2]; rat eye, single IP): 1 h
ocular exposure of BIO203 relative to BIO201 [3]: approximately 10 times
ocular exposure [3]: 144.9 ng·h/eye
preservation of retinal structure (photoreceptor layers) ([4]; 5 mg/kg): did not observe neuroprotection
preservation of retinal structure (photoreceptor layers) ([4]; 10 mg/kg): did not observe neuroprotection
preservation of retinal structure (photoreceptor layers) ([4]; 25 mg/kg, p < 0.0001): partially preserved the retinal structure
neuroprotective effect compared to vehicle (preliminary experiment) ([4]; BIO203 at 2.5 mg/mL (so in the source), IP, rat BLD): limited neuroprotective effect

loss of the compound ([1]; 3 months): 10%
loss of the compound ([1]; 6 months): −20.8%
loss of the compound ([1]; 12 months): −66.4%
left of the initial quantity ([1]; RT, 3 months): 41%
left of the initial quantity ([1]; RT, stabilized between 12 and 18 months): 22.1%
loss of compound ([1]; −20 °C, after one year): −18.1%
stability ([1]; −20 °C, up to 6 months): appeared stable
remaining intraocular concentration at 24 h ([2]; rat eye, single IP, 24 h): no longer detectable
intraocular AUC ([2]; rat eye, single IP): 2.5 ng·h/eye
intraocular Cmax ([2]; rat eye, single IP): less than 8.5 ng/eye
time of intraocular Cmax post-administration ([2]; rat eye, single IP): 0.25 h
ocular exposure [3]: 16.7 ng·h/eye
Structure (SMILES): CC(=C/C=C/C(C)=C/C=C/C=C(C)/C=C/C=C(C)/C=C/C(=O)O)/C=C/C(=O)O [norbixin, 9′-cis-norbixin]
preservation of retinal structure (photoreceptor layers) ([4]; 50 mg/kg, p < 0.0001): partially preserved the retinal structure
